Like-named read-outs stand apart in the source and are kept apart here.
Tests used:
[1] = test system: HCT-116 human colorectal carcinoma cells; assay: Cell-proliferation assay using Alamar Blue dye; type: cell-based; details: Homo sapiens, read-out: HCT-116 (uM), cell proliferation modulatory activity;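 also: cells exposed to compound for about 4 days, then Alamar Blue added and dye fluorescence read after about 4 h, compared with medium-only control wells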
[2] = molecular target: recombinant human PIM1 (Homo sapiens (Human), UniProt P11309); assay: PIM-1 kinase activity in cell-free in vitro assay; type: biochemical; details: for inhibition at 0.5 µM: 500 nM compound, read-out: PIM-1: % inh 500 nM
recombinant human PIM1, sequence (P11309 whole entry): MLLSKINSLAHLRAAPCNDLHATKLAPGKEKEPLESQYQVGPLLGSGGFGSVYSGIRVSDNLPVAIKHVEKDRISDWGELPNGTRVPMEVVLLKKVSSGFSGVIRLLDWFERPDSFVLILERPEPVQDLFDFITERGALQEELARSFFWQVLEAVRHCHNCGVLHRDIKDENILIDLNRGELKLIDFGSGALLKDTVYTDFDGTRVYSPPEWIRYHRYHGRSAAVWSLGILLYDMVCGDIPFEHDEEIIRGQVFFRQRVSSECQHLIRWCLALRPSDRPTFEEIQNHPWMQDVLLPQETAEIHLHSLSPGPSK

[3] = HCT-116, HCT-116, second column

| IC50 ([1]; HCT-116, HCT-116, first column) | inhibition at 0.5 µM ([2]; cell-free) | also measured | Structure (SMILES) |
| --- | --- | --- | --- |
| 10 µM | -24.7% | – | O=C(NCCCO)c1ccc2c(c1)nc(NCCCO)c1ccsc12 |
| 0.5 µM | -63.6% | – | CN(C)CCNc1nc2cc(C#N)ccc2c2ccccc12 |
| 10 µM | -65.4% | – | N#Cc1ccc2c(c1)nc(Nc1ccccc1)c1ccccc12 |
| 10 µM | 15.8% | – | c1ccc(Nc2nc3cc(-c4nnn[nH]4)ccc3c3ccccc23)cc1 |
| 10 µM | -22.1% | – | Clc1nc2ccccc2c2sccc12 |
| 10 µM | -26.1% | – | O=C(O)CNc1nc2cc(C(=O)O)ccc2c2sccc12 |
| 10 µM | -40.1% | – | O=C(O)c1ccc2c(c1)nc(Nc1nc3ccccc3[nH]1)c1ccsc12 |
| 10 µM | -16% | – | O=C(O)c1ccc2c(c1)nc(N1CCCC1)c1ccsc12 |
| 10 µM | 35.4% | – | CCC(c1ccccc1)c1nc2cc(C(=O)O)ccc2c2sccc12 (stereo not shown) |
| 10 µM | 3.04% | – | N#Cc1ccc2c(c1)nc(OCCCO)c1ccccc12 |
| 10 µM | 7.28% | – | OCCCOc1nc2ccccc2c2ccccc12 |
| 10 µM | 40.8% | – | OCCCOc1nc2cc(-c3nnn[nH]3)ccc2c2ccccc12 |
| 10 µM | -23.9% | – | c1ccc(Nc2nc3ccccc3c3ccccc23)cc1 |
| 10 µM | -17.5% | – | O=C(O)CNc1nc2ccccc2c2ccccc12 |
| 10 µM | 56.9% | – | CN(C)CCNc1nc2cc(-c3nnn[nH]3)ccc2c2ccccc12 |
| 10 µM | 2.59% | – | COC(=O)c1ccc2c(c1)nc(Nc1ccccc1)c1ccsc12 |
| 10 µM | -15.7% | – | CS(=O)(=O)NC(=O)c1ccc2c(c1)nc(Nc1ccccc1)c1ccsc12 |
| – | 21.8% | – | COc1ccc(OC)c(Nc2nc3cc(-c4nnn[nH]4)ccc3c3sccc23)c1 |
| – | -16% | IC50 [1, 3]: > 10 µM | N#Cc1ccc2c(c1)[nH]c(=O)c1ccncc12 |
| – | 33.1% | – | c1ccc(Nc2nc3cc(-c4nnn[nH]4)ccc3c3cnccc23)cc1 |
| – | 38.1% | – | CN(C)CCNc1nc2cc(-c3nnn[nH]3)ccc2c2cnccc12 |
| – | 4.18% | IC50 [1, 3]: > 10 µM | NC(=O)c1ccc2c(c1)[nH]c(=O)c1ccncc12 |

| IC50 ([1]; HCT-116, HCT-116, first column) | inhibition at 0.5 µM ([2]; cell-free) | also measured | Structure (SMILES) |
| --- | --- | --- | --- |
| – | 30.7% | – | FC(F)(F)Oc1cccc(Nc2nc3cc(-c4nnn[nH]4)ccc3c3sccc23)c1 |
| – | 63% | IC50 [1, 3]: > 10 µM; IC50 ([2]; cell-free): > 1.1 µM | COc1ccc(Nc2nc3cc(-c4nnn[nH]4)ccc3c3sccc23)cc1 |
| – | 46.1% | IC50 [1, 3]: > 10 µM | CCOc1ccc(Nc2nc3cc(-c4nnn[nH]4)ccc3c3sccc23)cc1 |
| – | 32.5% | IC50 [1, 3]: > 10 µM | FC(F)(F)Oc1ccc(Nc2nc3cc(-c4nnn[nH]4)ccc3c3sccc23)cc1 |
| – | 9.03% | IC50 [1, 3]: 15 µM | c1ccc(COc2ccc(Nc3nc4cc(-c5nnn[nH]5)ccc4c4sccc34)cc2)cc1 |
| – | 55.5% | IC50 [1, 3]: > 10 µM; IC50 ([2]; cell-free): 0.809 µM | COc1ccc(Nc2nc3cc(-c4nnn[nH]4)ccc3c3sccc23)cc1OC |
| – | 27.1% | – | CC(=O)Nc1cccc(Nc2nc3cc(-c4nnn[nH]4)ccc3c3sccc23)c1 |
| – | 58% | IC50 ([2]; cell-free): 0.386 µM | Cc1cccc(Nc2nc3cc(-c4nnn[nH]4)ccc3c3sccc23)c1 |
| – | 58% | IC50 ([2]; cell-free): 0.648 µM | O=C(O)c1cccc(Nc2nc3cc(-c4nnn[nH]4)ccc3c3sccc23)c1 |
| – | 81.1% | IC50 ([2]; cell-free): 0.391 µM | O=C(O)c1ccc2c(c1)nc(Nc1cccc(Cl)c1)c1ccsc12 |
| – | 26% | – | C#Cc1cccc(Nc2nc3cc(C(=O)O)ccc3c3sccc23)c1 |
| – | 47.7% | – | CCCNC(=O)c1cccc(Nc2nc3cc(-c4nnn[nH]4)ccc3c3sccc23)c1 |
| – | 9.3% | – | Fc1cc(Nc2nc3cc(-c4nnn[nH]4)ccc3c3cnccc23)ccc1Cl |
| – | – | inhibition at 0.5 µM ([2]; cell-free assay): -2.53% | O=C(O)c1ccc2c(c1)nc(Nc1ccccc1)c1nc(NC3CCNCC3)ncc12 |
| – | – | inhibition at 0.5 µM ([2]; cell-free assay): 4.27% | CCN(CC)CCNc1ncc2c(n1)c(Nc1ccccc1)nc1cc(C(=O)O)ccc12 |
| – | – | inhibition at 0.5 µM ([2]; cell-free assay): -5% | CCOc1ncc2c(n1)c(Nc1cccc(C(F)(F)F)c1)nc1cc(C(=O)O)ccc12 |
| – | – | inhibition at 0.5 µM ([2]; cell-free assay): -0.505% | CC(C)Nc1ncc2c(n1)c(Nc1cccc(Cl)c1)nc1cc(C(=O)O)ccc12 |
| – | – | inhibition at 0.5 µM ([2]; cell-free assay): 3.53% | O=C(O)c1ccc2c(c1)nc(Nc1cccc(Cl)c1)c1nc(O)ncc12 |
| – | – | inhibition at 0.5 µM ([2]; cell-free assay): 12.9% | Cc1ncc2c(n1)c(Nc1cccc(Cl)c1)nc1cc(C(=O)O)ccc12 |
| – | – | inhibition at 0.5 µM ([2]; cell-free assay): 0.371% | C#Cc1cccc(Nc2nc3cc(C(=O)OC)ccc3c3cnc(NOC)nc23)c1 |
| – | – | inhibition at 0.5 µM ([2]; cell-free assay): 24.2% | O=C(O)CCNc1ncc2c(n1)c(Nc1cccc(Cl)c1)nc1cc(C(=O)O)ccc12 |
| – | – | inhibition at 0.5 µM ([2]; cell-free assay): 59.3% | O=C(O)c1ccc2c(c1)nc(Nc1cccc(F)c1)c1nc(NC3CC3)ncc12 |

Reference: patent publication US8168651B2, “Protein kinase modulators” (Cylene Pharmaceuticals, Inc., priority 2008, dated 2012)
